Molecular target: T1, chimeric human H3 receptor (Homo sapiens, UniProt Q9Y5N1)
T1 construct: made in house; host or cells: Sf9 insect cells (baculovirus); P2 membrane preparation
Test: Chimeric human H3 receptor GTP binding assay (agonist-stimulated GTP-gamma35S binding, Example 7)
Format: biochemical
Conditions: Table II; "*" = Ki in assay of Example 7 less than 1 micromolar
Outline: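 Sf9 membranes co-expressing chimeric human H3 receptor and heterotrimeric G-protein, 35 μg/tube, in pH 7.4 Tris buffer with 10 μM GDP. Test compounds (10^−10–10^−6 M) competed against 1 μM histamine, […] GTP-gamma35S, 60 min at room temperature. Filter-bound radioactivity counted; IC50 converted to Ki by Cheng-Prusoff. Agonism/inverse agonism tested without histamine (EC50).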

T1 sequence (Q9Y5N1 with tags, fused parts or gaps): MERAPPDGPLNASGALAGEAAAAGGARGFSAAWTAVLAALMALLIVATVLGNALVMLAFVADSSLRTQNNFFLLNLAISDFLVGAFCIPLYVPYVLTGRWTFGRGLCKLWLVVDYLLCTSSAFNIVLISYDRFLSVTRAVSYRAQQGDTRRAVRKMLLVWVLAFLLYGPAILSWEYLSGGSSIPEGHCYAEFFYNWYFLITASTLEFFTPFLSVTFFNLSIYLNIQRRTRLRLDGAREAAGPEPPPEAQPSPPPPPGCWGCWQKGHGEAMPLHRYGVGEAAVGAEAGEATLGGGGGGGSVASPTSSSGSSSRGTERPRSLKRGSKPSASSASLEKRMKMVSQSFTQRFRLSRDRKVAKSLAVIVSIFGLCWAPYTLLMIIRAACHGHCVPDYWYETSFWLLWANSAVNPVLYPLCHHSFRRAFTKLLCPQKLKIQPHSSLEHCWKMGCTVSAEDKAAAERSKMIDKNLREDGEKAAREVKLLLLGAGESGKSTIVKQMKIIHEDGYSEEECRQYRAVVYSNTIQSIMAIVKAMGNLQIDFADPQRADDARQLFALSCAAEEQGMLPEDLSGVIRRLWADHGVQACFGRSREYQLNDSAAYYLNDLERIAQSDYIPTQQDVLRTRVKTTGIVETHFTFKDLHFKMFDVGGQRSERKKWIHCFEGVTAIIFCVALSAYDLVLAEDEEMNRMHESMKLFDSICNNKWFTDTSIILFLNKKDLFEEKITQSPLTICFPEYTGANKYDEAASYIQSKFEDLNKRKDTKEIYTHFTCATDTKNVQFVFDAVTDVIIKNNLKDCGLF

Compound	Ki [µM]
CC(=O)c1ccc(-n2cc3c(n2)CCN(CC(=O)N2CCN(C4CCC4)CC2)C3)nn1 [Compound 202, 1-(6-{5-[2-(4-cyclobutylpiperazin-1-yl)-2-oxoethyl]-4,5,6,7-tetrahydro-2H-pyrazolo[4,3-c]pyridin-2-yl}pyridazin-3-yl)ethanone]	< 1
N#Cc1ccc(-n2cc3c(n2)CCN(CC(=O)N2CCN(C4CCC4)CC2)C3)nn1 [Compound 203, 6-{5-[2-(4-cyclobutylpiperazin-1-yl)-2-oxoethyl]-4,5,6,7-tetrahydro-2H-pyrazolo[4,3-c]pyridin-2-yl}pyridazine-3-carbonitrile]	< 1
O=C(CN1CCc2nc(N3CCCC3)ncc2C1)N1CCN(C2CCC2)CC1 [Compound 204, 6-[2-(4-cyclobutylpiperazin-1-yl)-2-oxoethyl]-2-pyrrolidin-1-yl-5,6,7,8-tetrahydropyrido[4,3-d]pyrimidine]	< 1
CC1CCCC1N1CCN(C(=O)CN2CCc3nc(N4CCOCC4)ncc3C2)CC1 (centres unmarked) [Compound 205, 6-{2-[4-(2-methylcyclopentyl)piperazin-1-yl]-2-oxoethyl}-2-morpholin-4-yl-5,6,7,8-tetrahydropyrido[4,3-d]pyrimidine]	< 1
O=C(CN1CCc2c(cnn2-c2ccc(Cl)nn2)C1)N1CCN(C2CCC2)CC1 [Compound 214, 1-(6-chloropyridazin-3-yl)-5-[2-(4-cyclobutylpiperazin-1-yl)-2-oxoethyl]-4,5,6,7-tetrahydro-1H-pyrazolo[4,3-c]pyridine]	< 1
N#Cc1ccc(-n2ncc3c2CCN(CC(=O)N2CCN(C4CCC4)CC2)C3)nn1 [Compound 215, 6-{5-[2-(4-cyclobutylpiperazin-1-yl)-2-oxoethyl]-4,5,6,7-tetrahydro-1H-pyrazolo[4,3-c]pyridin-1-yl}pyridazine-3-carbonitrile]	< 1
CC(=O)c1ccc(-n2ncc3c2CCN(CC(=O)N2CCN(C4CCC4)CC2)C3)nn1 [Compound 216, 1-(6-{5-[2-(4-cyclobutylpiperazin-1-yl)-2-oxoethyl]-4,5,6,7-tetrahydro-1H-pyrazolo[4,3-c]pyridin-1-yl}pyridazin-3-yl)ethanone]	< 1
CC1CCCC1N1CCN(C(=O)CN2CCc3nc(N4CCCC4)ncc3C2)CC1 (centres unmarked) [Compound 218, 6-{2-[4-(2-methylcyclopentyl)piperazin-1-yl]-2-oxoethyl}-2-pyrrolidin-1-yl-5,6,7,8-tetrahydropyrido[4,3-d]pyrimidine]	< 1
O=C(CN1CCc2cc(N3CCOCC3)nnc2C1)N1CCN(C2CCC2)CC1 [Compound 220, 7-[2-(4-cyclobutylpiperazin-1-yl)-2-oxoethyl]-3-morpholin-4-yl-5,6,7,8-tetrahydropyrido[3,4-c]pyridazine]	< 1
O=C(CN1CCc2cc(N3CCCC3)nnc2C1)N1CCN(C2CCC2)CC1 [Compound 221, 7-[2-(4-cyclobutylpiperazin-1-yl)-2-oxoethyl]-3-pyrrolidin-1-yl-5,6,7,8-tetrahydropyrido[3,4-c]pyridazine]	< 1
O=C(CN1CCc2nc(N3CCCCC3)ccc2C1)N1CCN(C2CCC2)CC1 [Compound 222, 6-[2-(4-cyclobutylpiperazin-1-yl)-2-oxoethyl]-2-piperidin-1-yl-5,6,7,8-tetrahydro-1,6-naphthyridine]	< 1
O=C(CN1CCc2nc(N3CCC(F)C3)ccc2C1)N1CCN(C2CCC2)CC1 (centres unmarked) [Compound 225, 6-[2-(4-cyclobutylpiperazin-1-yl)-2-oxoethyl]-2-(3-fluoropyrrolidin-1-yl)-5,6,7,8-tetrahydro-1,6-naphthyridine]	< 1
O=C(CN1CCc2nc(N3CCC(O)C3)ccc2C1)N1CCN(C2CCC2)CC1 (centres unmarked) [Compound 226, 1-{6-[2-(4-cyclobutylpiperazin-1-yl)-2-oxoethyl]-5,6,7,8-tetrahydro-1,6-naphthyridin-2-yl}pyrrolidin-3-ol]	< 1
O=C(CN1CCc2nccnc2C1)N1CCN(C2CCC2)CC1 [Compound 228, 6-[2-(4-cyclobutylpiperazin-1-yl)-2-oxoethyl]-5,6,7,8-tetrahydropyrido[3,4-b]pyrazine]	< 1
O=C(CN1CCc2cc(-c3cncnc3)nnc2C1)N1CCN(C2CCC2)CC1 [Compound 232, 7-[2-(4-cyclobutylpiperazin-1-yl)-2-oxoethyl]-3-pyrimidin-5-yl-5,6,7,8-tetrahydropyrido[3,4-c]pyridazine]	< 1

The next lines start with the values.

Ki [µM]	Compound
< 1	O=C(CN1CCc2nn(-c3ccc(Cl)nn3)cc2C1)N1CCN(C2CCC2)CC1 [Compound 201, 2-(6-chloropyridazin-3-yl)-5-[2-(4-cyclobutylpiperazin-1-yl)-2-oxoethyl]-4,5,6,7-tetrahydro-2H-pyrazolo[4,3-c]pyridine]
< 1	CC(=O)c1ccc2c(c1)CCN(CC(=O)N1CCN(C3CCCC3C)CC1)C2 (centres unmarked) [Compound 206, 1-(2-{2-[4-(2-methylcyclopentyl)piperazin-1-yl]-2-oxoethyl}-1,2.3,4-tetrahydroisoquinolin-6-yl)ethanone]
< 1	O=C(CN1CCc2cc(-n3cncn3)ccc2C1)N1CCN(C2CCC2)CC1 [Compound 207, 2-[2-(4-cyclobutylpiperazin-1-yl)-2-oxoethyl]-6-(1H-1,2,4-triazol-1-yl)-1,2,3,4-tetrahydroisoquinoline]
< 1	O=C(CN1CCc2cc(-n3ccnn3)ccc2C1)N1CCN(C2CCC2)CC1 [Compound 208, 2-[2-(4-cyclobutylpiperazin-1-yl)-2-oxoethyl]-6-(1H-1,2,3-triazol-1-yl)-1,2,3,4-tetrahydroisoquinoline]
< 1	O=C(CN1CCc2cc(-n3nccn3)ccc2C1)N1CCN(C2CCC2)CC1 [Compound 209, 2-[2-(4-cyclobutylpiperazin-1-yl)-2-oxoethyl]-6-(2H-1,2,3-triazol-2-yl)-1,2,3,4-tetrahydroisoquinoline]
< 1	O=C(CN1CCc2cc(N3CCOC3=O)ccc2C1)N1CCN(C2CCC2)CC1 [Compound 210, 3-{2-[2-(4-cyclobutylpiperazin-1-yl)-2-oxoethyl]-1,2,3,4-tetrahydroisoquinolin-6-yl}-1,3-oxazolidin-2-one]
< 1	O=C(CN1CCc2cc(N3CCCCC3=O)ccc2C1)N1CCN(C2CCC2)CC1 [Compound 211, 1-{2-[2-(4-cyclobutylpiperazin-1-yl)-2-oxoethyl]-1,2,3,4-tetrahydroisoquinolin-6-yl}piperidin-2-one]
< 1	Cn1cccc(-c2ccc3c(c2)CCN(CC(=O)N2CCN(C4CCC4)CC2)C3)c1=O [Compound 212, 3-{2-[2-(4-cyclobutylpiperazin-1-yl)-2-oxoethyl]-1,2,3,4-tetrahydroisoquinolin-6-yl}-1-methylpyridin-2(1H)-one]
< 1	O=C(CN1CCc2cc(-n3cccnc3=O)ccc2C1)N1CCN(C2CCC2)CC1 [Compound 213, 1-{2-[2-(4-cyclobutylpiperazin-1-yl)-2-oxoethyl]-1,2,3,4-tetrahydroisoquinolin-6-yl}pyrimidin-2(1H)-one]
< 1	Cc1cnn(-c2ccc3c(c2)CCN(CC(=O)N2CCN(C4CCC4)CC2)C3)c1 [Compound 217, 2-[2-(4-cyclobutylpiperazin-1-yl)-2-oxoethyl]-6-(4-methyl-1H-pyrazol-1-yl)-1,2,3,4-tetrahydroisoquinoline]
< 1	CC(O)c1ccc2c(c1)CCN(CC(=O)N1CCN(C3CCC3)CC1)C2 (centres unmarked) [Compound 219, 1-{2-[2-(4-cyclobutylpiperazin-1-yl)-2-oxoethyl]-1,2,3,4-tetrahydroisoquinolin-6-yl}ethanol]
< 1	CN(C)c1ccc2c(n1)CCN(CC(=O)N1CCN(C3CCC3)CC1)C2 [Compound 224, 6-[2-(4-cyclobutylpiperazin-1-yl)-2-oxoethyl]-N,N-dimethyl-5,6,7,8-tetrahydro-1,6-naphthyridin-2-amine]
< 1	O=C(CN1CCc2nc(-n3cccc3)ccc2C1)N1CCN(C2CCC2)CC1 [Compound 227, 6-[2-(4-cyclobutylpiperazin-1-yl)-2-oxoethyl]-2-(1H-pyrrol-1-yl)-5,6,7,8-tetrahydro-1,6-naphthyridine]
< 1	O=C(CN1CCc2cc(-n3cc4ccccc4n3)ccc2C1)N1CCN(C2CCC2)CC1 [Compound 229, 2-[2-(4-cyclobutylpiperazin-1-yl)-2-oxoethyl]-6-(2H-indazol-2-yl)-1,2,3,4-tetrahydroisoquinoline]
< 1	O=C(CN1CCc2cc(-n3ncc4ccccc43)ccc2C1)N1CCN(C2CCC2)CC1 [Compound 230, 2-[2-(4-cyclobutylpiperazin-1-yl)-2-oxoethyl]-6-(1H-indazol-1-yl)-1,2,3,4-tetrahydroisoquinoline]
< 1	O=C(CN1CCc2cc(-c3ccc4nccn4c3)ccc2C1)N1CCN(C2CCC2)CC1 [Compound 231, 2-[2-(4-cyclobutylpiperazin-1-yl)-2-oxoethyl]-6-imidazo[1,2-a]pyridin-6-yl-1,2,3,4-tetrahydroisoquinoline]
< 1	O=C(CN1CCc2cc(-c3cccc(F)c3)nnc2C1)N1CCN(C2CCC2)CC1 [Compound 233, 7-[2-(4-cyclobutylpiperazin-1-yl)-2-oxoethyl]-3-(3-fluorophenyl)-5,6,7,8-tetrahydropyrido[3,4-c]pyridazine]
< 1	O=C(CN1CCc2c(cnn2-c2ccc(F)cc2)C1)N1CCN(C2CCC2)CC1 [Compound 234, 5-[2-(4-cyclobutylpiperazin-1-yl)-2-oxoethyl]-1-(4-fluorophenyl)-4,5,6,7-tetrahydro-1H-pyrazolo[4,3-c]pyridine]
< 1	O=C(CN1CCc2c(cnn2-c2cccc(F)c2)C1)N1CCN(C2CCC2)CC1 [Compound 235, 5-[2-(4-cyclobutylpiperazin-1-yl)-2-oxoethyl]-1-(3-fluorophenyl)-4,5,6,7-tetrahydro-1H-pyrazolo[4,3-c]pyridine]
< 1	O=C(CN1CCc2nn(-c3ccc(F)cc3)cc2C1)N1CCN(C2CCC2)CC1 [Compound 236, 5-[2-(4-cyclobutylpiperazin-1-yl)-2-oxoethyl]-2-(4-fluorophenyl)-4,5,6,7-tetrahydro-2H-pyrazolo[4,3-c]pyridine]
